Reference: US20260284011A1, “COMPOUNDS FOR RESTORING SUSCEPTIBILITY TO BETA-LACTAM ANTIBIOTICS” (UNIVERSITY OF NOTRE DAME DU LAC, priority 2023, published 2026)
Read-outs that look alike come from different tables or passages of the source.

Columns and labels:
[1] = tested on: 626 (NRS382), MRSA, SCCmec II, bla +; assay: MIC determination and potentiation assay (microdilution broth); assay type: cell-based; conditions: Staphylococcus aureus
Method: (§1) MICs were determined by the microdilution broth method following the Clinical & Laboratory Standards Institute (CLSI) guidelines. […] Experiments were performed in triplicate in 96-well plates with 5×10^5 CFU·mL^−1 of bacteria. […] The MIC was the concentration for which bacterial growth was not observed.

[2] = tested on: CA-263 (NRS647), MRSA, SCCmec IV, bla +; assay: as above; assay type: cell-based; conditions: Staphylococcus aureus
Method: as §1

[3] = tested on: NY-315 (NRS715), MRSA, SCCmec II, bla +; assay: as above; assay type: cell-based; conditions: Staphylococcus aureus
Method: as §1

[4] = tested on: HFH 29568, MRSA, USA300 clone, SCCmec IV, bla +; assay: as above; assay type: cell-based; conditions: Staphylococcus aureus
Method: as §1

NRS128, MSSA, bla + = assay: as above; assay type: cell-based; conditions: Staphylococcus aureus
Method: as §1

[5] = tested on: HIP 07930 (NRS22), MRSA/VISA, SCCmec II, bla +; assay: as above; assay type: cell-based; conditions: Staphylococcus aureus
Method: as §1

[6] = tested on: MN-082 (NRS701), MRSA, SCCmec II, bla +; assay: as above; assay type: cell-based; conditions: Staphylococcus aureus
Method: as §1

[7] = tested on: TN-124 (NRS735), MRSA, SCCmec II, bla +; assay: as above; assay type: cell-based; conditions: Staphylococcus aureus
Method: as §1

[8] = tested on: FPR3757, MRSA, USA300 clone, SCCmec IV, bla +; assay: as above; assay type: cell-based; conditions: Staphylococcus aureus
Method: as §1

[9] = tested on: MSSA476 (NRS72), MSSA, bla +; assay: as above; assay type: cell-based; conditions: Staphylococcus aureus
Method: as §1

[10] = tested on: CM05, MRSA, SCCmec I, bla +; assay: as above; assay type: cell-based; conditions: Staphylococcus aureus
Method: as §1

[11] = tested on: HIP13036 (NRS404), MRSA/VISA, SCCmec II, bla +; assay: as above; assay type: cell-based; conditions: Staphylococcus aureus
Method: as §1

[12] = tested on: CT-19 (NRS676), MRSA, SCCmec IV, bla +; assay: as above; assay type: cell-based; conditions: Staphylococcus aureus
Method: as §1

[13] = tested on: CA-127 (NRS643), MRSA, SCCmec IV, bla +; assay: as above; assay type: cell-based; conditions: Staphylococcus aureus
Method: as §1

[14] = tested on: various MRSA strains (NRS21, NRS70, NRS382, NRS404, HFH29568, HFH30495); assay: Time-kill assays (FIG. 6); assay type: cell-based, Staphylococcus aureus; conditions: at 24 h
Method: Time-kill assay. MRSA strains (NRS21, NRS70, NRS382, NRS404, HFH 29568, and HFH 30495) were grown overnight on tryptic soy agar plate. Bacteria were diluted in Muller-Hinton broth containing 2% NaCl to […] CFU·mL^−1. […] For MEM and CPT, cation-adjusted Muller-Hinton broth without 2% NaCl was used. Aliquots were taken at 0, 3, 6, 9, 12, and 24 h and were diluted serially for bacterial counts. The assay was done in triplicate.

[15] = 626 (NRS382), agent alone, read-out: MIC
[16] = CA-263 (NRS647), agent alone, read-out: MIC
[17] = NY-315 (NRS715), agent alone, read-out: MIC
[18] = HFH 29568, agent alone, read-out: MIC
[19] = NRS128, agent alone, read-out: MIC
[20] = HIP 07930 (NRS22), agent alone, read-out: MIC
[21] = MN-082 (NRS701), agent alone, read-out: MIC
[22] = FPR3757, agent alone, read-out: MIC
[23] = MSSA476 (NRS72), agent alone, read-out: MIC
[24] = HIP13036 (NRS404), agent alone, read-out: MIC
[25] = CT-19 (NRS676), agent alone, read-out: MIC
[26] = CA-127 (NRS643), agent alone, read-out: MIC

Row | SMILES | MIC [1, 15] [µg/mL] | MIC [2, 16] [µg/mL] | MIC [3, 17] [µg/mL] | MIC [4, 18] [µg/mL] | MIC (NRS128, MSSA, bla +; [19]) [µg/mL] | MIC [5, 20] [µg/mL] | MIC [6, 21] [µg/mL] | MIC [7] [µg/mL] | MIC [8, 22] [µg/mL] | MIC [9, 23] [µg/mL] | MIC [10] [µg/mL] | MIC [11, 24] [µg/mL] | MIC [12, 25] [µg/mL] | MIC [13, 26] [µg/mL] | reduction in bacterial growth by itself [14] | MIC [1] [µg/mL] | MIC (NRS128, MSSA, bla +) [µg/mL] | MIC [5] [µg/mL] | MIC [13] [µg/mL] | also measured
1 | CCO/N=C(\C(=O)N[C@@H]1C(=O)N2C(C(=O)[O-])=C(Sc3nc(-c4cc[n+](C)cc4)cs3)CS[C@H]12)c1nsc(N)n1 [CPT, ceftaroline] | 1 | 0.5 | 1 | 1 | 0.06 | 0.25 | 2 | 1 | 0.5 | 0.13 | 2 | 1 | 1 | 0.5 | Neither OXA, MEM, CPT, or compound 4 by itself showed reduction in bacterial growth |  |  |  |  | 
2 | N#Cc1ccc2nc(SCB(O)O)n(Cc3ccc(C(F)(F)F)cc3C(F)(F)F)c2c1 [Compound 4, (((1-(2,4-bis(trifluoro-methyl)benzyl)-6-cyano-1H-benzo[d]imidazol-2-yl)thio)methyl)boronic acid] | 16 | 16 | 16 | 16 | 16 | 16 | 16 | 16 | 16 | 32 | 32 | 8 | 16 | 16 | Neither OXA, MEM, CPT, or compound 4 by itself showed reduction in bacterial growth |  |  |  |  | 
3 | CO[C@@]1(NC(=O)Cc2cccs2)C(=O)N2C(C(=O)O)=C(COC(N)=O)CS[C@@H]21 [FOX, cefoxitin] |  | 32 | 256 | 32 |  |  | 256 | 128 | 64 | 4 | 512 | 256 | 64 |  |  | 512 | 4 | 128 | 128 | 
4 | C[C@@H](O)[C@H]1C(=O)N2C(C(=O)O)=C(S[C@@H]3CN[C@H](C(=O)N(C)C)C3)[C@H](C)[C@H]12 [MEM, meropenem] | 32 | 4 | 32 | 16 | 0.13 | 8 | 32 | 8 | 4 | 0.13 | > 32 | 8 | 4 | 4 | Neither OXA, MEM, CPT, or compound 4 by itself showed reduction in bacterial growth |  |  |  |  | 
5 | Cc1onc(-c2ccccc2)c1C(=O)N[C@@H]1C(=O)N2[C@@H]1SC(C)(C)[C@@H]2C(=O)O [OXA, oxacillin] |  |  |  |  |  |  |  | 256 |  |  | 512 |  |  |  | Neither OXA, MEM, CPT, or compound 4 by itself showed reduction in bacterial growth | 512 | 0.5 | 64 | 64 | MIC [2]: 64 µg/mL; MIC [3]: 256 µg/mL; MIC [4]: 64 µg/mL; MIC [6]: 512 µg/mL; MIC [8]: 64 µg/mL; MIC [9]: 0.5 µg/mL; MIC [11]: 256 µg/mL; MIC [12]: 256 µg/mL
